The record followed here is patent US8022072B2, “Azolylmethylidenehydrazine derivative and use thereof” (Kaken Pharmaceutical Co., Ltd., priority 2007, dated 2011).

In test [1] the test system is Trichophyton mentagrophytes SM-110. Put plainly: Antifungal activity evaluation test, MIC, Trichophyton mentagrophytes SM-110. In kind it is cell-based. The note with it: SM110, 168 h, Sabouraud Dextrose Broth, 30° C., 7 days, visual, read-out: MIC T. men. SM-110.
The subject of test [2] is Trichophyton mentagrophytes KD-04. Put plainly: Influence of keratin addition on anti-Trichophyton activity. In kind it is cell-based. The note with it: Trichophyton mentagrophytes, KD04, 168 h, 30° C., 7 days. The method, then:
The MIC increase rate by the addition of keratin to a medium was measured by the following procedure. • Test compound solution: A test compound was dissolved in dimethyl sulfoxide (DMSO) at a concentration of 5 mg/mL as a stock solution. Diluting this solution with DMSO, a 2-fold dilution series was prepared. • Test strain: Trichophyton mentagrophytes KD-04 was used. Preparation of Fungal Inoculum: the Above-Mentioned Strain was suspended in 0.05% Tween 80-containing physiological saline, and adjusted to a fungus concentration of 2×10^6 cells/mL using a counting chamber. […] The physiological saline was removed, and the mixture was further washed once with physiological saline (3 mL). The physiological saline was removed, and a test compound solution (10 μL) and Sabouraud Dextrose Broth (Difco) (500 μL) were added to keratin, and the mixture was sufficiently stirred. Then, inoculum (500 μL) of T. mentagrophytes KD-04 was added, and the mixture was cultured at 30° C. for 7 days. As a comparison control, an experiment similar to the above was performed under conditions free of keratin addition.

The test system of test [3] is OVA-induced dermatitis. Put plainly: Ovalbumin (OVA)-induced dermatitis model, ear edema. In kind it is in vivo, male ICR mouse. The arrangement: key: ratio of compound's ear edema inhibition rate to FK506's (FK506 = 1.0). The conditions noted are these: test compound 1 w/v % (FK506 0.1 w/v %), 20 μL applied to auricle, 24 hours after induction. The method, then:
(§1) The test compound was adjusted to 1 w/v % when in use with a solvent (acetone:olive oil=1:1, v/v)) and put to use. FK506 (control substance) was adjusted to 0.1 w/v % and used.
Male ICR mouse was sensitized by the administration of 0.2 mL of OVA-hydroxide aluminum gel suspension to the abdominal cavity. After 14 days from the sensitization, the thickness of the right auricle was measured with a micrometer (pre-value). After the measurement, 20 μL of 0.5 μg/mL OVA challenge liquid (solvent was physiological saline) was subcutaneously administered to the inside of the auricle to induce ear edema. About 5 minutes after the administration of the challenge liquid, 20 μL of the test compound was applied to the outside of the auricle. After 24 hours from the induction of ear edema, the thickness of the right auricle was measured by a method similar to the pre-value (post-value). The difference between the post-value and the pre-value of ear edema by each test compound was determined, based on which the inhibition rate was calculated. The activity of each test compound was calculated with the ear edema inhibition rate of FK506 as 1.0 (ear edema inhibition rate of each test compound/ear edema inhibition rate of FK506).

For test [4], the system named is Trichophyton rubrum KD-107. In words: Antifungal activity evaluation test, MIC, Trichophyton rubrum KD-107. In kind it is cell-based. The conditions noted are these: KD107, 168 h, Sabouraud Dextrose Broth, 30° C., 7 days, visual, read-out: MIC T. rub. KD-107.
The subject of test [5] is Trichophyton rubrum KD-101. Put plainly: Antifungal activity evaluation test, MIC, Trichophyton rubrum KD-101. In kind it is cell-based. The conditions noted are these: KD101, 168 h, Sabouraud Dextrose Broth, 30° C., 7 days, visual, read-out: MIC T. rub. KD-101.
The subject of test [6] is Malassezia furfur IFO-0656. In words: Antifungal activity evaluation test, MIC by urease activity, Malassezia furfur IFO-0656. In kind it is cell-based. The note with it: IFO0656, 96 h, MU medium, 30° C., day 4 or 5, urease activity of 20% or below, read-out: MIC M. fur. IFO-0656.
Test [7] relates to TNCB-induced dermatitis. In words: 2,4,6-Trinitrochlorobenzene (TNCB)-induced dermatitis model, ear edema. In kind it is in vivo, male BALB/c mouse. The note with it: test compound 1 w/v % (FK506 0.1 w/v %), 20 μL applied to auricle, 24 hours after induction. The method, then:
as §1
The fur on the abdomen of male BALB/c mouse was shaved with a hair clipper, and 100 μL of 7 w/v % TNCB sensitizing liquid (solvent was acetone:olive oil=4:1, v/v) was applied. Six days after the sensitization, the thickness of the right auricle was measured with a micrometer (pre-value). After the measurement, 10 μL of 1 w/v % TNCB challenge liquid (solvent was acetone:olive oil=1:9, v/v) was applied to the inside of the right auricle to induce ear edema. About 5 minutes after the application of the challenge liquid, 20 μL of the test compound was applied to the outside of the auricle.
After 24 hours from the induction of ear edema, the thickness of the right auricle was measured by a method similar to the pre-value (post-value). The difference between the post-value and the pre-value of ear edema by each test compound was determined, based on which the inhibition rate was calculated. The activity of each test compound was calculated with the ear edema inhibition rate of FK506 as 1.0 (ear edema inhibition rate of each test compound/ear edema inhibition rate of FK506).

Test [8] relates to Trichophyton mentagrophytes KD-04. In words: Antifungal activity evaluation test, MIC, Trichophyton mentagrophytes KD-04. The note with it: KD04, 168 h, Sabouraud Dextrose Broth, 30° C., 7 days, visual, read-out: MIC T. men. KD-04. In kind it is cell-based.

Converted amounts (≈) assume the structure as drawn.

One may read the MIC as the least concentration at which growth counts as inhibited.

In the case of `CCCCSc1ccccc1C(=NN(C)C)n1ccnc1` [Compound No. 82, N′-[1-(2-butylthiophenyl)-1-imidazol-1-ylmethylidene]-N,N-dimethylhydrazine], the MIC was 0.2 µg/mL (≈ 0.661 µM) in test [1]; 0.1 µg/mL (≈ 0.331 µM) in test [2] (T. mentagrophytes KD-04, free of keratin addition, read-out: MIC SDB alone); 0.2 µg/mL in test [2] (T. mentagrophytes KD-04, keratin 50 mg added, read-out: MIC SDB + keratin); 0.05 µg/mL (≈ 0.165 µM) in test [4]; 0.1 µg/mL (≈ 0.331 µM) in test [5]; 0.78 µg/mL (≈ 2.58 µM) in test [6]. Besides, the MIC in test [8] was 0.05 µg/mL (≈ 0.165 µM). In addition, in test [3], the “OVA-induced dermatitis, with ear edema inhibition rate of FK506 as 1.0” value came out at 1.1. Moreover, the “TNCB-induced dermatitis, with ear edema inhibition rate of FK506 as 1.0” value in test [7] stood at 0.6.
